Experiments:
Format in all cases: in vivo
Colletotricum lagenarium = assay: Cucumber Anthracnose (COLLLA), whole-plant fungicide test; details: one-day protectant test; for pest or weed control at 200 ppm: foliar
Leptosphaeria nodorum = assay: Glume Blotch of Wheat (LEPTNO), whole-plant fungicide test; details: one-day protectant test; for pest or weed control at 200 ppm: foliar; for pest or weed control at 200 ppm / LEPTNO percent control of disease: 200 ppm on foliage
Phytophthora infestans = assay: whole plant or invertebrate; details: for pest or weed control at 200 ppm: foliar, read-out: PHYTIN percent control of disease, 200 ppm on foliage, tomato, one-day protectant test; for PHYTIN percent control of disease: 200 ppm on foliage, tomato, one-day protectant test
Erysiphe cichoracaerum = assay: Cucumber Powdery Mildew (ERYSCI), whole-plant fungicide test; details: 200 ppm on foliage, one-day protectant test; for pest or weed control at 200 ppm: Erysiphe, foliar, 24 h, read-out: ERYSCI percent control of disease
[1] = system: Puccinia recondita tritici; assay: Leaf Rust of Wheat (PUCCRT), whole-plant fungicide test; details: one-day protectant test; for pest or weed control at 200 ppm / pest or weed control at 100 ppm: Puccinia recondita, 24 h, read-out: PUCCRT percent control of disease; for pest or weed control at 200 ppm: foliar; for pest or weed control at 200 ppm / PUCCRT percent control of disease: 200 ppm on foliage; for pest or weed control at 100 ppm: 100 ppm (footnote a)
Magnaporthe grisea = assay: whole plant or invertebrate; details: for PYRIOR percent control of disease: 200 ppm on foliage, rice, one-day protectant test; for pest or weed control at 200 ppm: Pyricularia oryzae, in Oryza sativa, foliar, 24 h, read-out: PYRIOR percent control of disease, 200 ppm on foliage, rice, one-day protectant test
[2] = Cucumis sativus, 24 h, 200 ppm on foliage, read-out: COLLLA percent control of disease
[3] = Parastagonospora nodorum, 24 h, read-out: LEPTNO percent control of disease
[4] = Phytophthora infestans, in Solanum lycopersicum, 24 h

Row | Structure (SMILES) | pest or weed control at 200 ppm (Colletotricum lagenarium; [2]) [%] | pest or weed control at 200 ppm (Leptosphaeria nodorum; [3]) [%] | pest or weed control at 200 ppm (Phytophthora infestans; [4]) [%] | pest or weed control at 200 ppm (Erysiphe cichoracaerum) [%] | pest or weed control at 200 ppm [1] [%] | pest or weed control at 200 ppm (Magnaporthe grisea) [%] | other results
1 | COc1cc(F)ccc1C(C)Nc1ncnc2scc(Cl)c12 (stereo not shown) [Compound 83] | 0 to 49 | 0 to 49 | 0 to 49 | 80 to 100 | 80 to 100 |  | 
2 | CC(C)c1ccc(C(C)Nc2ncnc3scc(Cl)c23)cc1 (stereo not shown) [Compound 24] | 0 to 49 |  |  |  |  |  | LEPTNO percent control of disease (Leptosphaeria nodorum): * (* is 0-49 percent control of disease); PHYTIN percent control of disease (Phytophthora infestans): * (* is 0-49 percent control of disease); ERYSCI percent control of disease (Erysiphe cichoracaerum): * (* is 0-49 percent control of disease); PYRIOR percent control of disease (Magnaporthe grisea): ** (** is 50-79 percent control of disease); PUCCRT percent control of disease [1]: * (* is 0-49 percent control of disease)
3 | COc1ccc(C(C)Nc2ncnc3scc(S(C)(=O)=O)c23)cc1 (stereo not shown) [Compound 89, 5-Methanesulfonyl-N-[1-(4-methoxyphenyl)ethyl]thieno[2,3-d]pyrimidin-4-amine] | 0 to 49 | 0 to 49 | 0 to 49 | 0 to 49 | 0 to 49 | 50 to 79 | 
4 | COc1ccc(COCC2CC2C(C)Nc2ncnc3scc(Cl)c23)cc1 (stereo not shown) [Compound 85] | 0 to 49 | 0 to 49 | 80 to 100 | 80 to 100 | 80 to 100 |  | 
5 | COc1ccc(C(C)Nc2ncnc3scc(Cl)c23)cc1 (stereo not shown) [Compound 27] | 0 to 49 | 50 to 79 | 0 to 49 | 80 to 100 | 80 to 100 | 80 to 100 | 
6 | CC(Nc1ncnc2scc(Cl)c12)c1ccc(C(C)(C)C)cc1 (stereo not shown) [Compound 91] |  | 80 to 100 |  | 80 to 100 | 80 to 100 | 80 to 100 | pest or weed control at 100 ppm (Colletotricum lagenarium; Cucumis sativus, 24 h, 100 ppm (footnote a), read-out: COLLLA percent control of disease): 50 to 79%; pest or weed control at 100 ppm (Phytophthora infestans; Phytophthora infestans, in Solanum lycopersicum, 24 h, read-out: PHYTIN percent control of disease, 100 ppm (footnote a), tomato, one-day protectant test): 50 to 79%
7 | CC(Nc1ncnc2scc(Cl)c12)c1ccc(OCC(F)(F)F)cc1 (stereo not shown) [Compound 73] | 80 to 100 | 50 to 79 | 0 to 49 | 80 to 100 | 80 to 100 | 80 to 100 | 
8 | Clc1csc2ncnc(NCCc3ccc4ccccc4c3)c12 [Compound 2a] | 0 to 49 | 0 to 49 | 80 to 100 | 80 to 100 | 80 to 100 | 80 to 100 | 
9 | COc1ccc(OCCNc2ncnc3scc(Cl)c23)cc1 [Compound 64] | 0 to 49 | 0 to 49 | 0 to 49 | 0 to 49 | 80 to 100 | 80 to 100 | 
10 | COc1ccc(OCC2CC2C(C)Nc2ncnc3scc(Cl)c23)cc1 (stereo not shown) [Compound 86] | 80 to 100 | 50 to 79 | 0 to 49 | 80 to 100 | 80 to 100 | 80 to 100 | 
11 | CC(C)c1ccc(C(C)Nc2ncnc3scc(Cl)c23)cc1 (stereo not shown) [Compound 25] |  |  |  |  |  |  | COLLLA percent control of disease (Colletotricum lagenarium; 200 ppm on foliage): * (* is 0-49 percent control of disease); LEPTNO percent control of disease (Leptosphaeria nodorum): *** (*** is 80-100 percent control of disease); PHYTIN percent control of disease (Phytophthora infestans): *** (*** is 80-100 percent control of disease); ERYSCI percent control of disease (Erysiphe cichoracaerum): *** (*** is 80-100 percent control of disease); PYRIOR percent control of disease (Magnaporthe grisea): *** (*** is 80-100 percent control of disease); PUCCRT percent control of disease [1]: *** (*** is 80-100 percent control of disease)
12 | CC(Nc1ncnc2scc(Cl)c12)c1ccc(N2CCOCC2)cc1 (stereo not shown) [Compound 7a] | 50 to 79 | 0 to 49 | 80 to 100 | 80 to 100 | 80 to 100 | 80 to 100 | 
13 | CC(Nc1ncnc2scc(Cl)c12)c1cnc(OCC(F)(F)F)s1 (stereo not shown) [Compound 90] | 0 to 49 | 50 to 79 | 0 to 49 | 80 to 100 | 80 to 100 | 80 to 100 | 
14 | CC(Nc1ncnc2scc(Cl)c12)c1ccc2oc(CC(C)(C)C)nc2c1 (stereo not shown) [Compound 1a] |  |  |  |  |  |  | pest or weed control at 100 ppm (Leptosphaeria nodorum; Parastagonospora nodorum, 24 h, 100 ppm (footnote a), read-out: LEPTNO percent control of disease): 50 to 79%; pest or weed control at 100 ppm [1]: 80 to 100%
15 | CC(Nc1ncnc2scc(Cl)c12)c1ccc(OCCF)nc1 (stereo not shown) [Compound 75] | 50 to 79 | 0 to 49 | 0 to 49 | 80 to 100 | 80 to 100 | 80 to 100 | 
16 | COCC1CC1C(C)Nc1ncnc2scc(Cl)c12 (stereo not shown) [Compound 81] |  |  |  |  |  |  | pest or weed control at 100 ppm [1]: 80 to 100%
